Experimental data as given in patent publication US20200062776A1, “HEDGEHOG ACYLTRANSFERASE INHIBITORS AND USES THEREOF” (Memorial Sloan-Kettering Cancer Center, priority 2016, published 2020).

Key:
membrane-bound Hhat = biological target: T1, membrane-bound Hhat (Homo sapiens, UniProt Q5VTY9); assay: Shh palmitoylation by membrane-bound Hhat (P100 membranes, SPA); format: biochemical; conditions: 1 hr at 20° C., triplicate
T1 construct: HA; expressed in transfected cells; host or cells: 293FT cells (P100 microsomal membranes)
T1 sequence (Q5VTY9 whole entry): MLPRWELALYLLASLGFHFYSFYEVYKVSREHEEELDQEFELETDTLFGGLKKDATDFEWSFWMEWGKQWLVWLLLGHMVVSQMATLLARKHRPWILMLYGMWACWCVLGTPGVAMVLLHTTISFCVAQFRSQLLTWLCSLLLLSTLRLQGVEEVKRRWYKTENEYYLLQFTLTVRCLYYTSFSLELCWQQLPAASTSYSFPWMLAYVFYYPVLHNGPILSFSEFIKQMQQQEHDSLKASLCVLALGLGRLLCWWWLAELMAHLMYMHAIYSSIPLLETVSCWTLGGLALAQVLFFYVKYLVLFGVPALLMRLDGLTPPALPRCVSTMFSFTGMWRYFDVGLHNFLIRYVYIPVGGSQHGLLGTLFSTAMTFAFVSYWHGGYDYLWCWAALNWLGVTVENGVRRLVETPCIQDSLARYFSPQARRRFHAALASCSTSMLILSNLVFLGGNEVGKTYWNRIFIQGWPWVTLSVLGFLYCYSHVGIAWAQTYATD
Protocol: Microsomal membranes (P100) were prepared from 293FT cells transfected with a cDNA encoding HA-tagged Hhat as described (see, e.g., Buglino, J. A., and Resh, M. D. “Hhat is a palmitoyl acyltransferase with specificity for N-palmitoylation of sonic hedgehog” J. Biol. Chem. 2008, 283, 22076-22088; Petrova, E., Rios-Esteves, J., Ouerfelli, O., Glickman, J. F., and Resh, M. D. “Inhibitors of Hedgehog acyltransferase block Sonic Hedgehog signaling” Nat Chem Biol 2013, 9, 247-249). The protocol described by Petrova et al. (Nat Chem Biol 2013, 9, 247-249) was used to analyze Shh palmitoylation. Briefly, P100 membranes were incubated with ^125I-Iodopalmitoyl CoA and a C-terminally biotinylated Shh peptide in 384-well plates in the presence of the indicated concentrations of TDI-3410 for 1 hr at 20° C. Biotinylated peptides were captured on streptavidin-coated SPA (Scintillation Proximity Assay) beads and the amount of ^125I radioactivity was quantified on a Perkin-Elmer Trilux reader. Each data point represents the average of triplicate samples. % Inhibition was calculated as in FIG. 1A.

H1703 oncospheres = assay: H1703 oncosphere growth, 10 days, EZQuant; format: cell-based, human; conditions: for cell count of H1703 oncospheres: compounds replenished every 2 days
Protocol: Duplicate wells were treated with the indicated concentrations of compound for 10 days. Compounds were replenished in the media every 2 days. Cell number was quantified at Day 10 using EZQuant (Alstem).

purified Hhat = biological target: T2, purified Hhat (Homo sapiens, UniProt Q5VTY9); assay: Pulldown assay: purified Hhat + 125I-palmitoyl CoA + Shh peptide; format: biochemical; conditions: 1 hr at 20° C.; read-out: IC50, Shh palmitoylation by purified Hhat
T2 construct: HA; made in house; host or cells: 293FT cells
T2 sequence (Q5VTY9 whole entry): as above
Protocol: FIG. 3. TDI-003410 inhibits Shh palmitoylation by purified Hhat. Pulldown assay: Purified Hhat+^125I-palmitoyl CoA+Shh peptide. […] Hhat was purified to homogeneity from 293FT cells transfected with a cDNA encoding HA-tagged Hhat, as described by Buglino and Resh (see, e.g., Buglino, J. A., and Resh, M. D. “Hhat is a palmitoyl acyltransferase with specificity for N-palmitoylation of sonic hedgehog” J. Biol. Chem. 2008, 283, 22076-22088). Purified Hhat was incubated with ^125I-Iodopalmitoyl CoA and a C-terminally biotinylated Shh peptide (representing the first 10 amino acids of mature Shh) for 1 hr at 20° C. in the presence of the indicated concentrations of TDI-3410. The reaction was quenched, and biotinylated peptides were captured on streptavidin-agarose beads by repeated centrifugation and washing. The amount of 125 radioactivity remaining in the bead pellet was determined in a g counter. % Inhibition was calculated as in FIG. 1A.

[1] = system: T47D human breast cancer cells; assay: T47D cell growth, 96-well plates, 6 days, EZQuant; format: cell-based; conditions: 750 cells/well
Protocol: (§1) AsPC1 human pancreatic cancer cells (FIG. 5A) or T47D human breast cancer cells (FIG. 5B) were seeded at 750 cells/well in 96 well plates and grown for 6 days in the presence of the indicated concentrations of TDI-3410 or DMSO. Compounds were added on Day 0, and were replenished in the media every 2 days. Each condition was represented by duplicate wells. Cell number was quantified at Day 6 using EZQuant (Alstem).

[2] = system: AsPC1 human pancreatic cancer cells; assay: AsPC1 cell growth, 24-well plates, 6 days, Crystal violet staining; format: cell-based; conditions: ASPC1, 144 h, FIG. 2D inhibition curve
Protocol: FIGS. 2A-2D show inhibition of the growth of AsPC1 cells by TDI compounds. […] Compounds were added on Day 0, and were replenished in the media every 2 days. Each condition was represented by duplicate wells. Cell number was quantified by Crystal violet staining. FIG. 2A. Growth curve. FIG. 2B. Crystal violet staining of a typical set of 6 wells. FIG. 2C. Bar graph depicting % inhibition of cell proliferation at Day 6 for each compound, compared to DMSO treated cells. % Inhibition was calculated as in FIG. 1A.

Hhat = Hhat (Homo sapiens, UniProt Q5VTY9); assay: Hhat-mediated Shh palmitoylation in COS-1 cells transfected with Shh and Hhat ([125I]-iodopalmitate labeling); format: cell-based; design: dose or concentration left out as unconfirmed; conditions: 4 hr labeling at 37° C.
Sequence of Hhat (Q5VTY9 whole entry): as above
Protocol: FIGS. 1A-1B. […] FIG. 1A. COS-1 cells were transfected with cDNA plasmids encoding Shh and Hhat (see, e.g., Buglino, J. A., and Resh, M. D. “Hhat is a palmitoyl acyltransferase with specificity for N-palmitoylation of sonic hedgehog” J. Biol. Chem. 2008, 283, 22076-22088; Petrova, E., Rios-Esteves, J., Ouerfelli, O., Glickman, J. F., and Resh, M. D. “Inhibitors of Hedgehog acyltransferase block Sonic Hedgehog signaling” Nat Chem Biol 2013, 9, 247-249). 48 hours after transfection, cells were starved for 1 hour in DMEM containing 2% dialyzed fetal calf serum and then labeled for 4 hr at 37° C. with […] [^125I]-iodopalmitate in the presence of […] of the indicated compound or DMSO. Cell lysates were immunoprecipitated with anti-Shh antibody, analyzed by SDS-PAGE and dried gels were subjected to Phosphorimaging. The amount of radiolabel incorporated into Shh was quantified and compared to that obtained for DMSO (normalized to 1.0). % Inhibition=1−(signal in drug treated sample/signal in DMSO sample)×100. FIG. 1B. Structure of RU-SKI 43 (see, e.g., Petrova, E., Rios-Esteves, J., Ouerfelli, O., Glickman, J. F., and Resh, M. D. “Inhibitors of Hedgehog acyltransferase block Sonic Hedgehog signaling” Nat Chem Biol 2013, 9, 247-249).

HeLa cells = assay: HeLa cell proliferation, 24-well plates, EZQuant; format: cell-based; design: effect on proliferation of HeLa cells: dose or concentration left out as unconfirmed
Protocol: 24-well plate; Drugs replenished every 2 days; viable cells quantified with EZQuant; STS=Staurosporine, a positive control for cell killing. […] HeLa cells were seeded at 0.5×10^5 cells/well in 24-well plates and proliferation was assayed as described for FIG. 5. Each compound was present […].

[3] = system: AsPC1 human pancreatic cancer cells; assay: AsPC1 cell growth, 96-well plates, 6 days, EZQuant; format: cell-based; conditions: 750 cells/well
Protocol: as §1

[4] = system: oncospheres derived from AsPC-1 human pancreatic cancer cells; assay: AsPC-1 oncosphere growth, 7 days, EZQuant; format: cell-based; conditions: ASPC1, drug replenished every 2 days, read-out: IC50, cell proliferation of AsPC-1 oncospheres
Protocol: AsPC-1 pancreatic cancer cells were grown on ultra-low attachment plates for 7-10 days in serum-free medium containing EGF, FGF, Insulin and N-2 and B-27 supplement to form oncospheres, which represent cancer stem cells. Oncosphere cultures were expanded and replated, and were used after 7 days in 2° culture. Oncospheres grown in 24-well plates were treated with TDI-3410 or vehicle; drug was replenished every 2 days. 7 days later, oncospheres were dissociated with trypsin and total viable cell number was determined using EZQuant.

Row | IC50 (membrane-bound Hhat) | IC50 (H1703 oncospheres; Homo sapiens, NCI-H1703, 240 h) | IC50 (purified Hhat) | IC50 [2] | Hhat-mediated Shh palmitoylation (Hhat) | IC50 (HeLa cells; Homo sapiens, HeLa, FIG. 6B inhibition curve, read-out: IC50, growth of HeLa cells) | IC50 [4] | SMILES | cell count of H1703 oncospheres (H1703 oncospheres) | growth of T47D human breast cancer cells [1] | concentration above which growth of HeLa cells is inhibited (HeLa cells; FIG. 6B) | effect on proliferation of HeLa cells (HeLa cells; HeLa cells express no detectable Hhat) | growth of AsPC1 human pancreatic cancer cells [3]
1 | 1.78 µM | 1.4 µM | 1.5 µM | 2.68 µM | blocks Hhat-mediated Shh palmitoylation | 28.5 µM | 1.8 µM | O=C(c1ccc2nccn2c1)N1CCc2sc(Cl)cc2[C@H]1c1ccc(F)cc1 [TDI-003410] | reduction in cell count with increased concentration | inhibits the growth | > 20 µM | little to no effect | inhibits the growth
2 |  |  |  |  |  |  |  | CCC(C)CNCC(=O)N1CCc2sccc2C1COc1cccc(C)c1 (stereo not shown) [RU-SKI 43, reference compound] | reduction in cell count with increased concentration |  |  |  | 
